# In publication PMC8389614, “A Comparison of Acute Pharmacological Effects of Methylone and MDMA Administration in Humans and Oral Fluid Concentrations as Biomarkers of Exposure” (Biology, 2021):
# Tests used:
# 5-HT2C receptors = test system: 5-HT2C receptors; design: method as in PMID 25237120, PMID 23583454; conditions: cited from earlier work
# healthy poly-drug users [1] = assay: Physiological effects (non-invasive SBP, DBP, HR, cutaneous temperature) after oral self-administration; type: in vivo, humans; design: key to HR Dunnet’s Test: “a” (times 0–1 h); “b” (times 0–2 h); “c” (times 0–4 h); not significant (NS); conditions: for DBP AUC0–4h / DBP Emax / HR AUC0–4h / HR Emax / SBP AUC0–4h / SBP Emax / Variation in cutaneous temperature: oral; for DBP AUC0–4h / DBP Emax / HR AUC0–4h / HR Emax / SBP AUC0–4h / SBP Emax: methylone 100–300 mg n=8, MDMA 75–100 mg n=6, baseline-adjusted, mean ± SD; for Variation in cutaneous temperature: methylone 100–300 mg, MDMA 75–100 mg, versus baseline, 0–4 h; for DBP Dunnet’s Test / HR Dunnet’s Test / SBP Dunnet’s Test: time points significantly different from baseline
# From the text: (§1) The study was designed as a non-controlled prospective observational study in a naturalistic setting with methylone and MDMA self-administration. The methodology, including procedures and evaluations, coincides with previous observational–naturalistic studies aimed at evaluating the acute effects of other NPS [38, 39, 40]. Six subjects (5 M, 1 F) self-administered MDMA and 8 subjects (5 M, 3 F) self-administered methylone. Each subject participated only in one session. Participants brought their own substance obtained from an unknown source, which was tested by Energy Control, a harm reduction organization that provides a drug checking service to drug users. Pills containing methylone and MDMA were analyzed by gas chromatography associated with mass spectrometry (GC/MS), a technique that traces the presence of the most frequent drugs of abuse, such as MDMA, cocaine, heroin, amphetamine and methamphetamine, LSD, and multiple NPS (methylone, mephedrone, and other synthetic cathinones, synthetic cannabinoids, tryptamines, among others).
# (§2) In both sessions, participants selected the dose of methylone or MDMA according to their previous drug use experience. Doses of methylone could be selected from a range (75–300 mg) that was previously defined according to the consulted literature. The WHO Expert Committee on Drug Dependence (Thirty-Sixth Meeting, Geneva, Switzerland, 16–20 June 2014) established that 60 mg of methylone was the threshold dose and doses over 250 mg were often related to very strong activity. Some users have reported uses of 300 mg of methylone as a common dose [www.erowid.org] (accessed on 15 June 2021). The mean of the selected doses of MDMA was 87.50 mg (3 subjects ingested 75 mg (2 males and 1 female), 3 males 100 mg). In the other study session, methylone doses ranged from 100 to 300 mg, with a mean of 187.50 mg. Based on their dose selection, 1 male ingested 100 mg, 2 subjects 150 mg (1 male and 1 female), 4 subjects 200 mg (2 males and 2 females), and 1 male 300 mg.
# (§3) The sessions were conducted in a naturalistic setting. Participants were allowed to talk, read, listen to music, or play games, except during the evaluation times. However, they were asked to refrain from talking about the effects of the substance. All the subjects were evaluated simultaneously at baseline, 1, 2, and 4 h after administration of methylone or MDMA, which occurred approximately at 16:00 h. At each time point, evaluations were followed in a specific order: physiological effects, oral fluid collection, and subjective effects scales and questionnaires.
# Non-invasive systolic blood pressure (SBP), diastolic blood pressure (DBP), and heart rate (HR) were measured with subjects in the sitting position, using an automatic Omron monitor at baseline, 1, 2, and 4 h (h) after self-administration. Cutaneous temperature was determined at the same time points.
# (§4) Vital signs (SBP, DBP, and HR) and subjective effects (VAS, ARCI, and VESSPA-SSE) were baseline-adjusted. Maximum effects and the time in which maximum effects appeared were determined, and the area under the curve (AUC0–4h) was calculated with the trapezoidal rule.
# (§5) Thirdly, to find possible significant changes from baseline, a Dunnett multiple comparison test was conducted to compare each time point with baseline in both drug conditions (0–1 h, 0–2 h, 0–4 h).
# [2] = Oral fluid concentrations (Salivette, LC-MS/MS); type: in vivo, humans; conditions: both sexes, human; for Cmax / AUC(0-t): methylone 100–300 mg n=8, MDMA 75–100 mg n=6, mean ± SD; for AUC(0-t): read-out: Oral fluid AUC0–4 h; for Tmax: methylone 100–300 mg n=8, MDMA 75–100 mg n=6, median (min–max)
# Protocol: In both sessions, oral fluid samples were collected with Salivette to determine methylone and MDMA concentrations in oral fluid at baseline, 1 h, 2 h, and 4 h. All samples were centrifuged after collection and stored frozen at −20 °C until analysis. Methylone and MDMA oral fluid concentrations were quantified via liquid chromatography tandem–mass spectrometry (LC–MS/MS).
# For oral fluid concentrations of MDMA and methylone, only a descriptive analysis was presented showing main pharmacokinetics data such as the maximum concentration (Cmax), the time required to reach maximum concentrations (Tmax), and AUC0–4h. These parameters were calculated using the Pharmacokinetic Functions for Microsoft Excel (Joel Usansky, Atul Desai, and Diane Tang-Liu, Department of Pharmacokinetics and Drug Metabolism, Allergan, Irvine, CA, USA).
# healthy poly-drug users [3] = assay: Subjective effects, ARCI 49-item short form; type: in vivo, humans; design: key to ARCI PCAG Dunnet’s Test: “a” (times 0–1 h); “b” (times 0–2 h); “c” (times 0–4 h); not significant (NS); conditions: for ARCI A (increased energy) AUC0–4h / ARCI A (increased energy) Emax / ARCI BG (intellectual efficiency) AUC0–4h / ARCI BG (intellectual efficiency) Emax / ARCI MBG (euphoria) AUC0–4h / ARCI MBG (euphoria) Emax / ARCI PCAG (sedation) AUC0–4h / ARCI PCAG (sedation) Emax / ARCI A (increased energy) Tmax: oral, methylone 100–300 mg n=8, MDMA 75–100 mg n=6; for ARCI A (increased energy) AUC0–4h / ARCI A (increased energy) Emax / ARCI BG (intellectual efficiency) AUC0–4h / ARCI BG (intellectual efficiency) Emax / ARCI MBG (euphoria) AUC0–4h / ARCI MBG (euphoria) Emax / ARCI PCAG (sedation) AUC0–4h / ARCI PCAG (sedation) Emax: baseline-adjusted, mean ± SD; for ARCI A (increased energy) Tmax: median (min–max); for ARCI A Dunnet’s Test / ARCI BG Dunnet’s Test / ARCI MBG Dunnet’s Test / ARCI PCAG Dunnet’s Test: time points significantly different from baseline
# From the text: as §1, §2, §3
# Subjective effects were evaluated at baseline, 1, 2, and 4 h after self-administration using visual analogue scales (VAS), the Addiction Research Center Inventory (ARCI), and the Evaluation of Subjective Effects of Substances with Abuse Potential questionnaire (VESSPA-SSE).
# The standardized ARCI 49-item short form is a true/false questionnaire used to evaluate the subjective effects of drugs of abuse. This inventory includes five subscales that assess pentobarbital–chlorpromazine–alcohol-like effects (PCAG, sedation), morphine–benzedrine-like effects (MBG, euphoria), lysergic acid diethylamide-like effects (LSD, dysphoria), benzedrine-like effects (BG, intellectual efficiency), and amphetamine-like effects (A, increased energy).
# as §4, §5
compound,measurement,setting,value
"CNC(C)Cc1ccc2c(c1)OCO2 (stereo not drawn) [MDMA, 3,4-methylenedioxymethamphetamine]",Activity at 5-HT2C receptors,5-HT2C receptors,partial agonist rather than an antagonist
same,DBP AUC0–4h,healthy poly-drug users [1],78.92 ± 30.33
same,DBP Emax,healthy poly-drug users [1],32.17 ± 11.29 mmHg
same,HR AUC0–4h,healthy poly-drug users [1],23.83 ± 38.73
same,HR Emax,healthy poly-drug users [1],10.67 ± 18.22 bpm
same,SBP AUC0–4h,healthy poly-drug users [1],107.67 ± 44.34
same,SBP Emax,healthy poly-drug users [1],46.83 ± 20.83 mmHg
same,Variation in cutaneous temperature,healthy poly-drug users [1],Neither of the substances caused significant variations
same,DBP Dunnet’s Test,healthy poly-drug users [1],"a, b"
same,HR Dunnet’s Test,healthy poly-drug users [1],NS
same,SBP Dunnet’s Test,healthy poly-drug users [1],"a, b"
same,Cmax,[2],2940 ± 2760 ng/mL
same,AUC(0-t),[2],6590 ± 5230 ng·h/mL
same,Tmax,[2],2 h
same,ARCI A (increased energy) AUC0–4h,healthy poly-drug users [3],15.75 ± 2.79
same,ARCI A (increased energy) Emax,healthy poly-drug users [3],5.83 ± 1.17 score
same,ARCI BG (intellectual efficiency) AUC0–4h,healthy poly-drug users [3],9.83 ± 6.38
same,ARCI BG (intellectual efficiency) Emax,healthy poly-drug users [3],4.67 ± 2.25 score
same,ARCI MBG (euphoria) AUC0–4h,healthy poly-drug users [3],20.83 ±10.05
same,ARCI MBG (euphoria) Emax,healthy poly-drug users [3],8.0 ± 3.35 score
same,ARCI PCAG (sedation) AUC0–4h,healthy poly-drug users [3],−1.58 ± 8.39
same,ARCI PCAG (sedation) Emax,healthy poly-drug users [3],−0.83 ± 3.54 score
same,ARCI A (increased energy) Tmax,healthy poly-drug users [3],1.0 (1.0–2.0) h
same,ARCI A Dunnet’s Test,healthy poly-drug users [3],"a, b, c"
same,ARCI BG Dunnet’s Test,healthy poly-drug users [3],"a, b"
same,ARCI MBG Dunnet’s Test,healthy poly-drug users [3],"a, b"
same,ARCI PCAG Dunnet’s Test,healthy poly-drug users [3],NS
"CNC(C)C(=O)c1ccc2c(c1)OCO2 (stereo not drawn) [Methylone, 3,4-methylenedioxymethcathinone]",Activity at 5-HT2C receptors,5-HT2C receptors,weak antagonist effects
same,DBP AUC0–4h,healthy poly-drug users [1],55.19 ± 31.02
same,DBP Emax,healthy poly-drug users [1],19.63 ± 13.96 mmHg
same,HR AUC0–4h,healthy poly-drug users [1],52.06 ± 39.16
same,HR Emax,healthy poly-drug users [1],20.50 ± 19.78 bpm
same,SBP AUC0–4h,healthy poly-drug users [1],80.81 ± 42.89
same,SBP Emax,healthy poly-drug users [1],31.25 ± 14.77 mmHg
same,Variation in cutaneous temperature,healthy poly-drug users [1],Neither of the substances caused significant variations
same,DBP Dunnet’s Test,healthy poly-drug users [1],"a, b, c"
same,HR Dunnet’s Test,healthy poly-drug users [1],a
same,SBP Dunnet’s Test,healthy poly-drug users [1],"a, b, c"
same,Cmax,[2],15500 ng/mL
same,AUC(0-t),[2],40600 ng·h/mL
same,Tmax,[2],2 h
same,ARCI A (increased energy) AUC0–4h,healthy poly-drug users [3],12.56 ± 7.77
same,ARCI A (increased energy) Emax,healthy poly-drug users [3],5.38 ± 3.29 score
same,ARCI BG (intellectual efficiency) AUC0–4h,healthy poly-drug users [3],10.06 ± 7.83
same,ARCI BG (intellectual efficiency) Emax,healthy poly-drug users [3],4.63 ± 3.34 score
same,ARCI MBG (euphoria) AUC0–4h,healthy poly-drug users [3],16.63 ± 13.21
same,ARCI MBG (euphoria) Emax,healthy poly-drug users [3],7.5 ± 5.13 score
same,ARCI PCAG (sedation) AUC0–4h,healthy poly-drug users [3],−2.75 ± 3.73
same,ARCI PCAG (sedation) Emax,healthy poly-drug users [3],−1.25 ± 1.58 score
same,ARCI A (increased energy) Tmax,healthy poly-drug users [3],1.5 (1.0–4.0) h
same,ARCI A Dunnet’s Test,healthy poly-drug users [3],"a, b"
same,ARCI BG Dunnet’s Test,healthy poly-drug users [3],"a, b"
same,ARCI MBG Dunnet’s Test,healthy poly-drug users [3],"a, b"
same,ARCI PCAG Dunnet’s Test,healthy poly-drug users [3],a
